Values of other authors as cited in patent US20240158516A1, “METHODS FOR THE TREATMENT OF THYROID EYE DISEASE” (Horizon Therapeutics Ireland DAC, priority 2021, published 2024).
Like-named read-outs stand apart in the source and are kept apart here.

How the values were obtained:
[1] = molecular target: IGF-1 R (Homo sapiens, UniProt P08069); conditions: cited from earlier work
[2] = cited from earlier work
[3] = tested on: tumor; conditions: in vivo; cited from earlier work
[4] = molecular target: T1, IGF-IR (Homo sapiens, UniProt P08069); conditions: cited from earlier work
T1 sequence (P08069 31-1367): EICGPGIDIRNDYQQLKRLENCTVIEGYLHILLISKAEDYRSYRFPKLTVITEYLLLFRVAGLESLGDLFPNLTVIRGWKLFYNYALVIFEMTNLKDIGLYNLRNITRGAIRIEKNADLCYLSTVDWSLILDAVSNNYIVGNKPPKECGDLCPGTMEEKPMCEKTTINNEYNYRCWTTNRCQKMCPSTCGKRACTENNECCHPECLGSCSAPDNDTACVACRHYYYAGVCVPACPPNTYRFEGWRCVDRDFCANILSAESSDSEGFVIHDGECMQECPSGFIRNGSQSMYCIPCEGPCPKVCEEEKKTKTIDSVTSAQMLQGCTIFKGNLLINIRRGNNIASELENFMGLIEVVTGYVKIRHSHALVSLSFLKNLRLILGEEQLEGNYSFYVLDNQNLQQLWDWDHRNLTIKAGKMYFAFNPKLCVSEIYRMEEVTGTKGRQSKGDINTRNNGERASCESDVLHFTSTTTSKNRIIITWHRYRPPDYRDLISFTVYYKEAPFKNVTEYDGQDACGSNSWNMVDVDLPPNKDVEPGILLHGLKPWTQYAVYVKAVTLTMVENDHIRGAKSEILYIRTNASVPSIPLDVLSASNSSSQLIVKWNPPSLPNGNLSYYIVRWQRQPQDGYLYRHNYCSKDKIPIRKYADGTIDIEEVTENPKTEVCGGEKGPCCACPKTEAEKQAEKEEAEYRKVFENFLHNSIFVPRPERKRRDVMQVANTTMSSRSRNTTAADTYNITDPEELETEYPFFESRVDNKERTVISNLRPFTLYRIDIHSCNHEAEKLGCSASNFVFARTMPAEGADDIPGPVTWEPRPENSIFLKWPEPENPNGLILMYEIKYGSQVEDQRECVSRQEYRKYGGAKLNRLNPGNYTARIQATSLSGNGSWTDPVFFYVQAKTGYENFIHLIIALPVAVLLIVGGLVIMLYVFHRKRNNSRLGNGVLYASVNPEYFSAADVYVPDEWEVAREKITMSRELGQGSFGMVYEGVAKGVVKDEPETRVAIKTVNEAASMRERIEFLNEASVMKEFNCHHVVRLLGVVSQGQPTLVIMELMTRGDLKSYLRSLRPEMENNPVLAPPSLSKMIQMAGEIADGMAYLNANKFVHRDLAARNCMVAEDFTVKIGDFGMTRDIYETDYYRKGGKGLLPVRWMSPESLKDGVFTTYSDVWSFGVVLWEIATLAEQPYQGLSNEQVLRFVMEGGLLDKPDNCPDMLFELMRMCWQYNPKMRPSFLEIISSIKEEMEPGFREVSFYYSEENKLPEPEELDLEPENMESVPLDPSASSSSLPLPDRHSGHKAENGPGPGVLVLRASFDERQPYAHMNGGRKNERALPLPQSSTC

[5] = molecular target: T1, IGF-IR; conditions: cited from earlier work; remark: listed apart in the source
[6] = cited from earlier work; remark: listed apart in the source
[7] = tested on: patients with moderate-to-severe active TED; conditions: cited from earlier work
[8] = tested on: patients with GO (TED); conditions: vs. 0.15 mm in the placebo group; cited from earlier work

Chain of IGF-1 R (P08069 31-1367): as above

COc1cc(N2CCC(N)CC2)ccc1Nc1ncc(Cl)c(-c2c[nH]c3ccccc23)n1 [AZD3463]
inhibition of IGF-1 R [1]: potent ALK/IGF-1 R inhibitor

COCCN1CCN(CCn2ccc(Nc3ncc4c(n3)[C@@H](C)Cc3nn(C)c(-c5ccccc5)c3-4)n2)CC1 [BI885578]
in vivo half-life ([2]; as a result of rapid metabolic clearance): short
intestinal absorption ([2]; in vivo): rapid
metabolic clearance ([2]; in vivo): rapid

N#CCc1cnc(-c2ccc3ccccc3n2)n1-c1ccnc(NC2CCCNC2)n1 (stereo not shown) [BI893923]
anti-tumor efficacy [3]: anti-tumor efficacy
tolerability [3]: good

Nc1ncnc2c1c(-c1ccc3[nH]c(Cc4ccccc4Cl)nc3c1)nn2[C@H]1CC[C@H](N2CCOCC2)CC1 [Example A-928605]
inhibition of IGF-IR on the purified enzyme [4]: potent inhibitor
inhibition of intracellular IGF-IR phosphorylation [5]: potent inhibitor

C[C@]1(O)C[C@@H](c2nc(-c3ccc4ccc(-c5ccccc5)nc4c3)c3c(N)nccn32)C1 [Linsitinib]
T1/2 ([6]; oral): oral; 2-4 hrs

CN1CCC(Nc2cc(Cl)cc3c(S(=O)(=O)N4CCO[C@H](COc5ccccc5)C4)c(C(N)=O)[nH]c23)CC1 [PL-225B]
T1/2 ([6]; oral): Oral; 21d
inhibition of IGF-1 R [1]: selectively inhibits IGF-1 R

Cixutumumab: IGF-1R inhibitor antibody; HC SEQ ID NO:55, LC SEQ ID NO:56
T1/2 ([6]; IV): IV; 5 days

Dalotuzumab: IGF-1R inhibitor antibody; HC SEQ ID NO:7, LC SEQ ID NO:8
T1/2 ([6]; in vivo, iv): IV;5 days

rituximab: a CD20+ B cell-depleting agent
reduction in proptosis compared with the ivGC results ([7]; compared with 0.6 mm mean reduction under ivGCs): not different
effects of rituximab versus placebo ([7]; first trial, 2015 monocenter RCT): negative
effects of rituximab versus ivGCs ([7]; second trial, 2015 monocenter RCT): positive

teprotumumab: fully human IGF-IR-inhibitory monoclonal antibody approved for TED; VH SEQ ID NO:90, VL SEQ ID NO:91
T1/2 ([6]; IV): IV; 8 days
exophthalmos decreased by an average of [8]: 2.46 mm

B1: Figitumumab: IGF-1R inhibitor antibody; HC SEQ ID NO:39, LC SEQ ID NO:40 (antibody)
heavy: EVQLLESGGGLVQPGGSLRLSCTASGFTFSSYAMNWVRQAPGKGLEWVSAISGSGGTTFYADSVKGRFTISRDNSRTTLYLQMNSLRAEDTAVYYCAKDLGWSDSYYYYYGMDVWGQGTTVTVSSASTKGPSVFPLAPCSRSTSESTAALGCLVKDYFPEPVTVSWNSGALTSGVHTFPAVLQSSGLYSLSSVVTVPSSNFGTQTYTCNVDHKPSNTKVDKTVERKCCVECPPCPAPPVAGPSVFLFPPKPKDTLMISRTPEVTCVVVDVSHEDPEVQFNWYVDGVEVHNAKTKPREEQFNSTFRVVSVLTVVHQDWLNGKEYKCKVSNKGLPAPIEKTISKTKGQPREPQVYTLPPSREEMTKNQVSLTCLVKGFYPSDIAVEWESNGQPENNYKTTPPMLDSDGSFFLYSKLTVDKSRWQQGNVFSCSVMHEALHNHYTQKSLSLSPGK
light: DIQMTQFPSSLSASVGDRVTITCRASQGIRNDLGWYQQKPGKAPKRLIYAASRLHRGVPSRFSGSGSGTEFTLTISSLQPEDFATYYCLQHNSYPCSFGQGTKLEIKRTVAAPSVFIFPPSDEQLKSGTASVVCLLNNFYPREAKVQWKVDNALQSGNSQESVTEQDSKDSTYSLSSTLTLSKADYEKHKVYACEVTHQGLSSPVTKSFNRGEC
modifications: Figitumumab Heavy Chain (HC); Figitumumab Light Chain (LC)
T1/2 ([6]; IV): IV; 20 days
